US12492173B2, “Herbicidal substituted N-tetrazolyl aryl carboxamides” (Bayer Aktiengesellschaft, priority 2019, dated 2025)

Columns and labels:
Format in all cases: in vivo
Digitaria sanguinalis [1] = assay: Pre-emergence herbicidal action, DIGSA; details: dosage 320 g/ha, scored visually after 3 weeks vs untreated controls (100% = plants have died)
Excerpt: (§1) 1. Pre-Emergence Herbicidal Action Against Harmful Plants Seeds of monocotyledonous and dicotyledonous weed plants and crop plants are laid out in sandy loam soil in wood-fiber pots and covered with soil. The compounds of the invention, formulated in the form of wettable powders (WP) or as emulsion concentrates (EC), are then applied to the surface of the covering soil in the form of an aqueous suspension or emulsion at a water application rate equating to 600 to 800 l/ha, with addition of 0.2% wetting agent. After the treatment, the pots are placed in a greenhouse and kept under good growth conditions for the trial plants. The damage to the test plants is scored visually after a test period of 3 weeks by comparison with untreated controls (herbicidal activity in percent (%): 100% activity=the plants have died, 0% activity=like control plants). […] The tables below illustrate, in an exemplary manner, the […] herbicidal action of the compounds according to the invention, the herbicidal activity being stated in percent. [table] In the experiments that follow, herbicidal action of numerous inventive compounds and the known compounds that are structurally closest from D1 (WO 2012/028579 A1) and D2 (WO 2018/202535 A1) were compared under the above-specified conditions by the pre-emergence and post-emergence method. The example numbers given in the tables relate to the compounds disclosed in the respective documents. In addition to the compounds disclosed in D1 and D2, the following compounds V-1 to V-14 that are encompassed by D1 or D2 but are not compounds specified therein were used in the comparative experiments: • V-1: 2-(methylsulfanyl)-3-(methylsulfinyl)-N-(1-methyl-1H-tetrazol-5-yl)-4-(trifluoromethyl)benzamide • V-2: 2-(methylsulfanyl)-3-(methylsulfonyl)-N-(1-methyl-1H-tetrazol-5-yl)-4-(trifluoromethyl)benzamide • V-3: 2,3-bis(ethylsulfanyl)-N-(1-methyl-1H-tetrazol-5-yl)-4-(trifluoromethyl)benzamide • V-4: 2-chloro-3-(ethylsulfanyl)-N-(1-methyl-1H-tetrazol-5-yl)-4-(trifluoromethyl)benzamide • V-5: 2-chloro-4-iodo-3-(methylsulfanyl)-N-(1-methyl-1H-tetrazol-5-yl)benzamide • V-6: 2-chloro-4-iodo-3-(methylsulfinyl)-N-(1-methyl-1H-tetrazol-5-yl)benzamide • V-7: 2-chloro-4-iodo-3-(methylsulfonyl)-N-(1-methyl-1H-tetrazol-5-yl)benzamide • V-8: 2-bromo-3-(methylsulfanyl)-N-(1-methyl-1H-tetrazol-5-yl)-4-(trifluoromethyl)benzamide • V-9: 2-bromo-3-(methylsulfinyl)-N-(1-methyl-1H-tetrazol-5-yl)-4-(trifluoromethyl)benzamide • V-10: 2-bromo-3-(methylsulfonyl)-N-(1-methyl-1H-tetrazol-5-yl)-4-(trifluoromethyl)benzamide • V-11: 2-bromo-3-(ethylsulfanyl)-N-(1-methyl-1H-tetrazol-5-yl)-4-(trifluoromethyl)benzamide • V-12: 2-bromo-3-(ethylsulfinyl)-N-(1-methyl-1H-tetrazol-5-yl)-4-(trifluoromethyl)benzamide • V-13: 2-bromo-3-(ethylsulfonyl)-N-(1-methyl-1-1H-tetrazol-5-yl)-4-(trifluoromethyl)benzamide • V-14: 2-cyclopropyl-3-(ethylsulfanyl)-N-(1-methyl-1H-tetrazol-5-yl)-4-(trifluoromethyl)benzamide Herbicidal Pre-Emergence Action: […]

Hordeum murinum = assay: Post-emergence herbicidal action, HORMU; parameters: key: % herbicidal action: 100 = plants died, 0 = like control; details: post-emergence, dosage 80 g/ha
Protocol: (§2) [table] 2. Post-Emergence Herbicidal Action Against Harmful Plants Seeds of monocotyledonous and dicotyledonous weed and crop plants are laid out in sandy loam soil in wood-fiber pots, covered with soil and cultivated in a greenhouse under good growth conditions. 2 to 3 weeks after sowing, the test plants are treated at the one-leaf stage. The compounds of the invention, formulated in the form of wettable powders (WP) or as emulsion concentrates (EC), are then sprayed onto the green parts of the plants in the form of an aqueous suspension or emulsion at a water application rate equating to 600 to 800 l/ha, with addition of 0.2% wetting agent. After the test plants have been left to stand in the greenhouse under optimal growth conditions for about 3 weeks, the action of the preparations is assessed visually in comparison to untreated controls (herbicidal action in percent (%): 100% activity=the plants have died, 0% activity=like control plants). […] The tables below illustrate, in an exemplary manner, the post-emergence herbicidal action of the compounds according to the invention, the herbicidal activity being stated in percent. In the experiments that follow, herbicidal action of numerous inventive compounds and the known compounds that are structurally closest from D1 (WO 2012/028579 A1) and D2 (WO 2018/202535 A1) were compared under the above-specified conditions by the pre-emergence and post-emergence method. The example numbers given in the tables relate to the compounds disclosed in the respective documents. In addition to the compounds disclosed in D1 and D2, the following compounds V-1 to V-14 that are encompassed by D1 or D2 but are not compounds specified therein were used in the comparative experiments: • V-1: 2-(methylsulfanyl)-3-(methylsulfinyl)-N-(1-methyl-1H-tetrazol-5-yl)-4-(trifluoromethyl)benzamide • V-2: 2-(methylsulfanyl)-3-(methylsulfonyl)-N-(1-methyl-1H-tetrazol-5-yl)-4-(trifluoromethyl)benzamide • V-3: 2,3-bis(ethylsulfanyl)-N-(1-methyl-1H-tetrazol-5-yl)-4-(trifluoromethyl)benzamide • V-4: 2-chloro-3-(ethylsulfanyl)-N-(1-methyl-1H-tetrazol-5-yl)-4-(trifluoromethyl)benzamide • V-5: 2-chloro-4-iodo-3-(methylsulfanyl)-N-(1-methyl-1H-tetrazol-5-yl)benzamide • V-6: 2-chloro-4-iodo-3-(methylsulfinyl)-N-(1-methyl-1H-tetrazol-5-yl)benzamide • V-7: 2-chloro-4-iodo-3-(methylsulfonyl)-N-(1-methyl-1H-tetrazol-5-yl)benzamide • V-8: 2-bromo-3-(methylsulfanyl)-N-(1-methyl-1H-tetrazol-5-yl)-4-(trifluoromethyl)benzamide • V-9: 2-bromo-3-(methylsulfinyl)-N-(1-methyl-1H-tetrazol-5-yl)-4-(trifluoromethyl)benzamide • V-10: 2-bromo-3-(methylsulfonyl)-N-(1-methyl-1H-tetrazol-5-yl)-4-(trifluoromethyl)benzamide • V-11: 2-bromo-3-(ethylsulfanyl)-N-(1-methyl-1H-tetrazol-5-yl)-4-(trifluoromethyl)benzamide • V-12: 2-bromo-3-(ethylsulfinyl)-N-(1-methyl-1H-tetrazol-5-yl)-4-(trifluoromethyl)benzamide • V-13: 2-bromo-3-(ethylsulfonyl)-N-(1-methyl-1-1H-tetrazol-5-yl)-4-(trifluoromethyl)benzamide • V-14: 2-cyclopropyl-3-(ethylsulfanyl)-N-(1-methyl-1H-tetrazol-5-yl)-4-(trifluoromethyl)benzamide Herbicidal Pre-Emergence Action: […]

Digitaria sanguinalis [2] = assay: Post-emergence herbicidal action, DIGSA; parameters: key: % herbicidal action: 100 = plants died, 0 = like control; details: post-emergence, dosage 80 g/ha
Protocol: as §2

Lolium rigidum = assay: Post-emergence herbicidal action, LOLRI; details: dosage 80 g/ha
Protocol: as §2

Alopecurus myosuroides = assay: Pre-emergence herbicidal action, ALOMY; parameters: key: % activity: 100 = plants have died, 0 = like control plants; details: comparative experiment
Excerpt: as §1

Lolium multiflorum = assay: Post-emergence herbicidal action, LOLMU; parameters: key: % herbicidal action: 100 = plants died, 0 = like control; details: post-emergence; for herbicidal action LOLMU: dosage 80 g/ha; for Herbicidal action against LOLMU: comparative experiment
Protocol: as §2

Cyperus esculentus = assay: Pre-emergence herbicidal action, CYPES; parameters: key: % activity: 100 = plants have died, 0 = like control plants; details: comparative experiment
Summary of the method: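 Percent damage, assessed visually after 3 weeks and referenced to untreated controls, reflects a pre-emergence treatment. Spray liquid equated to 600 to 800 l/ha with 0.2% wetting agent, applied to the covering soil over seeds in sandy loam.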

CC[S+]([O-])Cc1c(C(F)(F)F)ccc(C(=O)Nc2nnnn2C)c1Cl (racemic) [Example 1-300]
herbicidal activity DIGSA (Digitaria sanguinalis [1]): 100% | herbicidal action HORMU (Hordeum murinum): 90% | herbicidal action DIGSA (Digitaria sanguinalis [2]): 100% | herbicidal action LOLRI (Lolium rigidum): 90%

Cn1nnnc1NC(=O)c1ccc(I)c(C[S+](C)[O-])c1Cl (racemic) [Example 1-363]
herbicidal activity DIGSA (Digitaria sanguinalis [1]): 100% | Herbicidal action against ALOMY (Alopecurus myosuroides; 20 g of a.i./ha): 50 | herbicidal action HORMU (Hordeum murinum): 90% | herbicidal action DIGSA (Digitaria sanguinalis [2]): 100% | herbicidal action LOLRI (Lolium rigidum): 80%

CC[S+]([O-])Cc1c(C(F)(F)F)ccc(C(=O)Nc2nnnn2C)c1Br (racemic) [Example 1-384]
herbicidal action LOLMU (Lolium multiflorum): 90% | Herbicidal action against ALOMY (Alopecurus myosuroides; 80 g of a.i./ha): 100 | Herbicidal action against CYPES (Cyperus esculentus; 80 g of a.i./ha): 100

CSc1c(C(=O)Nc2nnnn2C)ccc(C(F)(F)F)c1C[S+](C)[O-] (centres unmarked) [Example 1-162]
herbicidal action HORMU (Hordeum murinum): 90% | Herbicidal action against CYPES (Cyperus esculentus; 20 g of a.i./ha): 70 | herbicidal action LOLRI (Lolium rigidum): 80%

CCSCc1c(C(F)(F)F)ccc(C(=O)Nc2nnnn2C)c1Cl [Example 1-299]
Herbicidal action against LOLMU (Lolium multiflorum; 5 g of a.i./ha): 70 | herbicidal action LOLMU (Lolium multiflorum): 90% | Herbicidal action against ALOMY (Alopecurus myosuroides; 20 g of a.i./ha): 80 | Herbicidal action against CYPES (Cyperus esculentus; 20 g of a.i./ha): 90

Cn1nnnc1NC(=O)c1ccc(C(F)(F)F)c(CS(=O)(=O)C2CC2)c1Cl [Example 1-304]
herbicidal action HORMU (Hordeum murinum): 80% | herbicidal action LOLRI (Lolium rigidum): 80%

COCCSCc1c(C(F)(F)F)ccc(C(=O)Nc2nnnn2C)c1Cl [Example 1-305]
herbicidal action HORMU (Hordeum murinum): 90% | herbicidal action LOLRI (Lolium rigidum): 100%

Cn1nnnc1NC(=O)c1ccc(C(F)(F)F)c(CSCC2CC2)c1Cl [Example 1-314]
herbicidal action HORMU (Hordeum murinum): 100% | herbicidal action LOLRI (Lolium rigidum): 90%

CSCc1c(I)ccc(C(=O)Nc2nnnn2C)c1Cl [Example 1-362]
herbicidal action HORMU (Hordeum murinum): 100% | Herbicidal action against CYPES (Cyperus esculentus; 20 g of a.i./ha): 80 | herbicidal action LOLRI (Lolium rigidum): 80%

CCS(=O)(=O)Cc1c(C(F)(F)F)ccc(C(=O)Nc2nnnn2C)c1Br [Example 1-385]
Herbicidal action against LOLMU (Lolium multiflorum; 20 g of a.i./ha): 50 | herbicidal action LOLMU (Lolium multiflorum): 80% | Herbicidal action against ALOMY (Alopecurus myosuroides; 80 g of a.i./ha): 100

CCn1nnnc1NC(=O)c1ccc(C(F)(F)F)c(C[S+]([O-])CC)c1Cl (centres unmarked) [Example 2-300]
herbicidal activity DIGSA (Digitaria sanguinalis [1]): 100% | herbicidal action HORMU (Hordeum murinum): 90% | herbicidal action DIGSA (Digitaria sanguinalis [2]): 100% | herbicidal action LOLRI (Lolium rigidum): 80%

CCn1nnnc1NC(=O)c1ccc(C(F)(F)F)c(CSCCOC)c1Cl [Example 2-305]
herbicidal action HORMU (Hordeum murinum): 100% | herbicidal action LOLRI (Lolium rigidum): 80%

CCCn1nnnc1NC(=O)c1ccc(C(F)(F)F)c(C[S+](C)[O-])c1SC (centres unmarked) [Example 3-162]
herbicidal action HORMU (Hordeum murinum): 90% | herbicidal action LOLRI (Lolium rigidum): 80%

CCS(=O)(=O)c1c(C(F)(F)F)ccc(C(=O)Nc2nnnn2C)c1Br [Example V-13, 2-bromo-3-(ethylsulfonyl)-N-(1-methyl-1-1H-tetrazol-5-yl)-4-(trifluoromethyl)benzamide, reference compound]
Herbicidal action against LOLMU (Lolium multiflorum; 20 g of a.i./ha): 0 | Herbicidal action against ALOMY (Alopecurus myosuroides; 80 g of a.i./ha): 0
